Laboratory results as given in ChEMBL document CHEMBL1155858, “Derivatives of (3S)-N-(biphenyl-2-ylmethyl)pyrrolidin-3-amine as selective noradrenaline reuptake inhibitors: Reducing P-gp mediated efflux by modulation of H-bond acceptor capacity” (Bioorg Med Chem Lett, 2008).
Values belong to the compound of their own block, whether it stands above or below them.

Key:
[1] = biological target: Cytochrome P450 2D6 (Homo sapiens, UniProt P10635); experiment: Inhibition of CYP2D6; type: ADME
[2] = biological target: T1, Sodium-dependent dopamine transporter (Homo sapiens, UniProt Q01959); experiment: Inhibition of [3H]dopamine reuptake at human DAT expressed in HEK293 cells by SPA; type: cell-based
T1 sequence (Q01959 whole entry): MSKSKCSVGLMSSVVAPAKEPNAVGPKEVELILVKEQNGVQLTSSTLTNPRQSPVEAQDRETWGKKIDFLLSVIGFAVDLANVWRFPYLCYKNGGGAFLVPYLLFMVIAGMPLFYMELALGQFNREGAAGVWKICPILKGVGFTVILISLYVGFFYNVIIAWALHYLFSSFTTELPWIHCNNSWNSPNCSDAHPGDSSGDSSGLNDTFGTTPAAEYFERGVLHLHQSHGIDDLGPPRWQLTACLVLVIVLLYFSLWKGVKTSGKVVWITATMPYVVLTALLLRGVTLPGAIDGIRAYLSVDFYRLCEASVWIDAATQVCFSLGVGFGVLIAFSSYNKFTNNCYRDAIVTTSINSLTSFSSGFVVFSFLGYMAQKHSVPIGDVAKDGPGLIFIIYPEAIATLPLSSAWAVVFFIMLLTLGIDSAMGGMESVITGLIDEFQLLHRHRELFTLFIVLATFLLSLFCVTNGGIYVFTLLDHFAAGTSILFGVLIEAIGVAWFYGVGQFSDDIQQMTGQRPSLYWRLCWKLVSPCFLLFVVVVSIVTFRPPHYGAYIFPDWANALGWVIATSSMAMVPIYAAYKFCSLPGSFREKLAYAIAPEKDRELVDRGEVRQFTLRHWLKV

[3] = Metabolic stability in human liver microsomes assessed as intrinsic clearance; type: ADME, Microsome
[4] = biological target: T2, Sodium-dependent serotonin transporter (Homo sapiens, UniProt P31645); experiment: Inhibition of [3H]citalopram uptake at human 5HTT expressed in HEK293 cells by SPA; type: cell-based
T2 sequence (P31645 whole entry): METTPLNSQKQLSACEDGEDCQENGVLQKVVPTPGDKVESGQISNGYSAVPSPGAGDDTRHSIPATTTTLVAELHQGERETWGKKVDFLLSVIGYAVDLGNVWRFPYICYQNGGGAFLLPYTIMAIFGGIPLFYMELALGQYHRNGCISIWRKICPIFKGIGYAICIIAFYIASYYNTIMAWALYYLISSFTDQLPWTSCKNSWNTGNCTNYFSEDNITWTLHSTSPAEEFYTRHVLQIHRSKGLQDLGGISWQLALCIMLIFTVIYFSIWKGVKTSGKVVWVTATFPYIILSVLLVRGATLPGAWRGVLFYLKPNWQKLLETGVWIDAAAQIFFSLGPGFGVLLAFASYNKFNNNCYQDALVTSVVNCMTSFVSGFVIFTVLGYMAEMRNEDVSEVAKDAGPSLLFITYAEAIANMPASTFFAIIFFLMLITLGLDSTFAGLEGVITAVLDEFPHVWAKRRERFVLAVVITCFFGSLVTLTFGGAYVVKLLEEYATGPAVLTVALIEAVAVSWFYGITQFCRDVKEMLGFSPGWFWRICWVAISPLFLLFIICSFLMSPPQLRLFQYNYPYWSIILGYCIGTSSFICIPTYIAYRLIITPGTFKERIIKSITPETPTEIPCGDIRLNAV

[5] = biological target: Sodium-dependent noradrenaline transporter (Homo sapiens, UniProt P23975); experiment: Inhibition of [3H]nisoxetine reuptake at human NET expressed in HEK293 cells by SPA; type: cell-based
Sodium-dependent noradrenaline transporter, sequence (P23975 whole entry): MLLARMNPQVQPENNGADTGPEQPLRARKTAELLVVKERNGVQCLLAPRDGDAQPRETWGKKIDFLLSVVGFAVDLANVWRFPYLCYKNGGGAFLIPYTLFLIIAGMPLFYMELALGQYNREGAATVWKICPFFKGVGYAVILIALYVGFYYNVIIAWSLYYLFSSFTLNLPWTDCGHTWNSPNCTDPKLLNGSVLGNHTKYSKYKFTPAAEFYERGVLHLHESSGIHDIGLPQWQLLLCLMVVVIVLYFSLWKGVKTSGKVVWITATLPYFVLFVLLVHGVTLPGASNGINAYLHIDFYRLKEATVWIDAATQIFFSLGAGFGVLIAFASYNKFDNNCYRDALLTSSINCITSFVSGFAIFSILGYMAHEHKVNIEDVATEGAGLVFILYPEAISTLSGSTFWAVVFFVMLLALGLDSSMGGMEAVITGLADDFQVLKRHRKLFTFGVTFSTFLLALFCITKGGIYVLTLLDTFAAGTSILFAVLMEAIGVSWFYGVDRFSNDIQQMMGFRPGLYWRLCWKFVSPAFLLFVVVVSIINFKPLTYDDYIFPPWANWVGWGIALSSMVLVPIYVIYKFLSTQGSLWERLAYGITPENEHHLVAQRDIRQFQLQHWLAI

[6] = biological target: T2, Sodium-dependent serotonin transporter
Description: Inhibition of [3H]5HT uptake at human SERT expressed in HEK293 cells

[7] = biological target: T1, Sodium-dependent dopamine transporter
Description: Inhibition of [3H]dopamine uptake at human DAT expressed in HEK293 cells

[8] = biological target: CYP1A2 (Homo sapiens, UniProt P05177); experiment: Inhibition of CYP1A2 at 3 uM; type: ADME
[9] = biological target: CYP2D6 (Homo sapiens, UniProt P10635); experiment: Inhibition of CYP2D6 at 3 uM; type: ADME
CYP2D6, sequence (P10635 whole entry): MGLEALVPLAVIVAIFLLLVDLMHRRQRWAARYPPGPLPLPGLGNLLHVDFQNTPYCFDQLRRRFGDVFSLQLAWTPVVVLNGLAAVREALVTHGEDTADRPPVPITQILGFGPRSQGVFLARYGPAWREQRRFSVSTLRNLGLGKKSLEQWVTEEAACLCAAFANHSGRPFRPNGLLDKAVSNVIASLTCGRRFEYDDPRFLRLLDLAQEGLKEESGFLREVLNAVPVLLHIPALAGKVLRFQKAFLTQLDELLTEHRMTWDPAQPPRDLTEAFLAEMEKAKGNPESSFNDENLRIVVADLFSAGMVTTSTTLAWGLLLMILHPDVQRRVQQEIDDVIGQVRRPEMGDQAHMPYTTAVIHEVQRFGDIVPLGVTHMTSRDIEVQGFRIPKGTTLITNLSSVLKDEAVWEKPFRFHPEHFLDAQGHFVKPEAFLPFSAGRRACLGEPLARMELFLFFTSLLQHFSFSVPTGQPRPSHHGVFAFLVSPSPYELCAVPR

[10] = system: Liver microsomes; experiment: Metabolic stability in human liver microsomes; type: ADME, Microsome
[11] = biological target: CYP3A4 (Homo sapiens, UniProt P08684); experiment: Inhibition of CYP3A4 at 3 uM; type: ADME
CYP3A4, sequence (P08684 whole entry): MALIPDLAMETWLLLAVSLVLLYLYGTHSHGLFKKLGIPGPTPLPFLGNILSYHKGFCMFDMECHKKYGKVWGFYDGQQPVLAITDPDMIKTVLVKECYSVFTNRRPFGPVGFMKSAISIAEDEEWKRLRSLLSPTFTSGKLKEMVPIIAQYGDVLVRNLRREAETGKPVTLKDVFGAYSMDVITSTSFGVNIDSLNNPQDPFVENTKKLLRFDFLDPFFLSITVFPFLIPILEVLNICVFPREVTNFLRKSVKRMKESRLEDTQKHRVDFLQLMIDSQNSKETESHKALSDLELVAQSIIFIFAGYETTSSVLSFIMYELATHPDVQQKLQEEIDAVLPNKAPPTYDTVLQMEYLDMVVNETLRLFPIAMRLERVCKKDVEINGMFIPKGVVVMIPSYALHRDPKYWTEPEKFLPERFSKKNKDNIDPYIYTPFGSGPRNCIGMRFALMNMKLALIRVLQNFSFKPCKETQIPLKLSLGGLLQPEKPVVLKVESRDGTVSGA

[12] = biological target: CYP2C9 (Homo sapiens, UniProt P11712); experiment: Inhibition of CYP2C9 at 3 uM; type: ADME
[13] = Apparent permeability from basolateral to apical side of the MDCK cells expressing MDR1 gene; type: ADME, cell-based, Canis lupus familiaris; conditions: dog
[14] = Ratio of permeability from basolateral to apical side over apical to basolateral side of MDCK cells expressing MDR1 gene; conditions: dog
[15] = Apparent permeability from apical to basolateral side of the MDCK cells expressing MDR1 gene; type: ADME, cell-based, Canis lupus familiaris; conditions: dog
[16] = biological target: Cytochrome P450 3A4 (Homo sapiens, UniProt P08684); experiment: Inhibition of CYP3A4; type: ADME
Cytochrome P450 3A4, sequence (P08684 whole entry): as above

[17] = Dissociation constant, pKa of the compound; type: physicochemical
[18] = biological target: Voltage-gated inwardly rectifying potassium channel KCNH2 (Homo sapiens, UniProt Q12809); experiment: Displacement of [3H]dofetilide from human ERG channel
[19] = Inhibition of sodium channel site 2
[20] = Distribution coefficient, log D at pH 7.4; type: physicochemical; conditions: octanol/water
[21] = biological target: Cytochrome P450 2C9 (Homo sapiens, UniProt P11712); experiment: Inhibition of CYP2C9; type: ADME
Cytochrome P450 2C9, sequence (P11712 whole entry): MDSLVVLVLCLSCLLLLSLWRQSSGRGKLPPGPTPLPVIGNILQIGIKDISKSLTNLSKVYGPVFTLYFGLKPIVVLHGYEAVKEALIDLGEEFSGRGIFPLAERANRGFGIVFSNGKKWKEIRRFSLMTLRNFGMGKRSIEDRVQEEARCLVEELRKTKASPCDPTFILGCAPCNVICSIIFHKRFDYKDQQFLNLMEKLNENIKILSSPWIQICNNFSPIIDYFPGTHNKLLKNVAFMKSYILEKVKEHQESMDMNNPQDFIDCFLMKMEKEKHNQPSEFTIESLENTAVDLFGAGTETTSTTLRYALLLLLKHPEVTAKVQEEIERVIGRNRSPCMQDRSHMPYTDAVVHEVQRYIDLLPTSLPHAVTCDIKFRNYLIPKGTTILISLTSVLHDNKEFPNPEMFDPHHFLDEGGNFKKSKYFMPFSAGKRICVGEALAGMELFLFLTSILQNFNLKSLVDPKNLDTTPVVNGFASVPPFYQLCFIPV

[22] = Inhibition of L type calcium channel
[23] = biological target: T3, Cytochrome P450 1A2 (Homo sapiens, UniProt P05177); experiment: Inhibition of CYP1A2; type: ADME
T3 sequence (P05177 whole entry): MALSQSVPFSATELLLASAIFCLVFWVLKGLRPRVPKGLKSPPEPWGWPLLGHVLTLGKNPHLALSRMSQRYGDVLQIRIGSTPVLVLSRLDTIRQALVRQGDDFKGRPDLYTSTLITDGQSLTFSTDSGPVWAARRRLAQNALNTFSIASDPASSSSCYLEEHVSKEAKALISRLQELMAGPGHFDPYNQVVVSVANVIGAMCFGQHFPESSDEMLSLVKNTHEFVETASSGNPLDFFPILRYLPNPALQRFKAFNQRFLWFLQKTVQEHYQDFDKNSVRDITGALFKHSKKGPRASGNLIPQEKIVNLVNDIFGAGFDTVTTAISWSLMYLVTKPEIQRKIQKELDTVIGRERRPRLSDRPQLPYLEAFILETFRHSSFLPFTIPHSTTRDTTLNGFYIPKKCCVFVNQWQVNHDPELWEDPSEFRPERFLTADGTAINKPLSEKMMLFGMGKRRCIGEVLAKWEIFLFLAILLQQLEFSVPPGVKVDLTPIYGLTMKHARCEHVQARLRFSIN

[24] = Apparent permeability from basolateral to apical side of the human Caco-2 membrane; type: ADME, cell-based
[25] = biological target: T4, 5-hydroxytryptamine receptor 2B (Homo sapiens, UniProt P41595); experiment: Activity at 5HT2B receptor
T4 sequence (P41595 whole entry): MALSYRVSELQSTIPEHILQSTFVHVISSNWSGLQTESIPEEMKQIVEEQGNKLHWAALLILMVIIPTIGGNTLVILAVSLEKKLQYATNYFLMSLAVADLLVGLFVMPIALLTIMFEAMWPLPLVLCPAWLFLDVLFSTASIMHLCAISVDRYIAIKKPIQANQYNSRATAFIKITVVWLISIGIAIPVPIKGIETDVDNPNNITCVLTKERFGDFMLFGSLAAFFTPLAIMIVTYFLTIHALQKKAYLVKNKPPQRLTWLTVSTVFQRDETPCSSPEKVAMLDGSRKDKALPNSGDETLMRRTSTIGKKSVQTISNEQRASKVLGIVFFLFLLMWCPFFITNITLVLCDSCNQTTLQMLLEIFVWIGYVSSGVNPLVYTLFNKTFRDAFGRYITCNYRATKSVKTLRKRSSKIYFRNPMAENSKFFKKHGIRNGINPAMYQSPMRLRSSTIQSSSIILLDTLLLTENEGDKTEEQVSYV

[26] = Inhibition of [3H]NA uptake at rat NET expressed in HEK293 cells; type: cell-based
[27] = biological target: 5-hydroxytryptamine receptor 2C (Homo sapiens, UniProt P28335); experiment: Activity at 5HT2C receptor
5-hydroxytryptamine receptor 2C, sequence (P28335 whole entry): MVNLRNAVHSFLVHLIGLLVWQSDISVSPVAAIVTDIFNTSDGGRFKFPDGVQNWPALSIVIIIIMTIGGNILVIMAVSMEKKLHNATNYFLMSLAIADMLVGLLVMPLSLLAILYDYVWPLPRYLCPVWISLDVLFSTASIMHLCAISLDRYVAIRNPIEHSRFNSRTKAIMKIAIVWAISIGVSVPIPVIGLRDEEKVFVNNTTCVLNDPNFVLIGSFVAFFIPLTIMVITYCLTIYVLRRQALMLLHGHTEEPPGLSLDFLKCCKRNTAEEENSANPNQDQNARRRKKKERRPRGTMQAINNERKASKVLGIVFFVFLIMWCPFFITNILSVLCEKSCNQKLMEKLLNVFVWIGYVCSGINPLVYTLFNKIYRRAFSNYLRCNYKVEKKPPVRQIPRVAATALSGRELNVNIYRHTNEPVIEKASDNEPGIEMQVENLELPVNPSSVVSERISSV

[28] = biological target: T5, Muscarinic acetylcholine receptor M3 (Homo sapiens, UniProt P20309); experiment: Inhibition of muscarinic M3 receptor at 10 uM
[29] = system: Hepatocyte; experiment: Metabolic stability in human hepatocytes assessed as intrinsic clearance; type: ADME, cell-based, Liver
[30] = biological target: 5-hydroxytryptamine receptor 2C (Homo sapiens) (UniProt P28335); experiment: Inhibition of 5HT2C receptor at 10 uM
5-hydroxytryptamine receptor 2C (Homo sapiens), sequence (P28335 whole entry): as above

[31] = biological target: T4, 5-hydroxytryptamine receptor 2B; experiment: Inhibition of 5HT2B receptor at 10 uM
[32] = biological target: T6, 5-hydroxytryptamine receptor 2A (Homo sapiens, UniProt P28223); experiment: Inhibition of 5HT2A receptor at 10 uM
T6 sequence (P28223 whole entry): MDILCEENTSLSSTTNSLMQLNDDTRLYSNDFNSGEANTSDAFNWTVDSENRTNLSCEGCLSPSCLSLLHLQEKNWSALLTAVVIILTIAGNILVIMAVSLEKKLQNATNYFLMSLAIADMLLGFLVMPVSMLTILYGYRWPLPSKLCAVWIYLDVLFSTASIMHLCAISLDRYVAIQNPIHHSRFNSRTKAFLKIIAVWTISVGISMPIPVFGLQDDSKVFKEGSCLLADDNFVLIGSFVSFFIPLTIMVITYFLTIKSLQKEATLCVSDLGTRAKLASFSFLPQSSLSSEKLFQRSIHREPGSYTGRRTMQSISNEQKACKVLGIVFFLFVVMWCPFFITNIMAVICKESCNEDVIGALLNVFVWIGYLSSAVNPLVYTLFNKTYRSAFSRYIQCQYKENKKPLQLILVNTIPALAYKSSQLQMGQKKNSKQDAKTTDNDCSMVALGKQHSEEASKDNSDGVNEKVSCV

[33] = biological target: T5, Muscarinic acetylcholine receptor M3; experiment: Inhibition of muscarinic M3 receptor
[34] = system: Rattus norvegicus; experiment: Increase in noradrenaline level in interstitial fluid of sc dosed conscious rat prefrontal cortex relative to baseline; type: functional
[35] = Apparent permeability from apical to basolateral side of the human Caco-2 membrane; type: ADME, cell-based
[36] = biological target: T6, 5-hydroxytryptamine receptor 2A; experiment: Activity at 5HT2A receptor

Cytochrome P450 2D6, sequence (P10635 whole entry): as the sequence (P10635 whole entry) above

- IC50 [1]: 350 nM
- Ki [2]: 2910 nM
- microsomal CLint [3]: < 7 µL/min/mg
- Ki [4]: 410 nM
- Ki [5]: 16 nM
Compound: CCOC(=O)N(Cc1ccccc1-c1ccccc1)[C@@H]1CCNC1

- Ki [2]: 3410 nM
- microsomal CLint [3]: < 7 µL/min/mg
- Ki [4]: 544 nM
- Ki [5]: 70 nM
Compound: CC(C)C(=O)N(Cc1ccccc1C(C)C)[C@H]1CCNC1

- Ki [2]: 2010 nM
- Ki [4]: 787 nM
- Ki [5]: 14 nM
Compound: CC(C)OC(=O)N(Cc1ccccc1-c1ccccc1)[C@H]1CCNC1

- IC50 [1]: 1890 nM
- Ki [2]: 2760 nM
- microsomal CLint [3]: < 7 µL/min/mg
- Ki [4]: 5620 nM
- Ki [5]: 5 nM
Compound: CCS(=O)(=O)N(Cc1ccccc1-c1ccccc1)[C@H]1CCNC1

- IC50 [1]: > 3000 nM
- IC50 [6]: 12 nM
- IC50 [7]: 1250 nM
- inhibition at 3 µM [8]: < 40%
- inhibition at 3 µM [9]: < 10%
- inhibition at 3 µM [11]: < 40%
- inhibition at 3 µM [12]: < 40%
Compound: CC(C)C(=O)N(Cc1cccc(Cl)c1Cl)[C@H]1CCNC1
- t1/2 [10]: > 2 h

- Ki [2]: 2610 nM
- microsomal CLint [3]: < 7 µL/min/mg
- Ki [4]: 730 nM
- Ki [5]: 25 nM
Compound: CCCC(=O)N(Cc1ccccc1-c1ccccc1)[C@H]1CCNC1

- IC50 [1]: 5360 nM
- Ki [2]: 2390 nM
- microsomal CLint [3]: < 7 µL/min/mg
- Ki [4]: 5350 nM
- Ki [5]: 29 nM
Compound: CS(=O)(=O)N(Cc1ccccc1-c1ccccc1)[C@@H]1CCNC1

- Papp B→A [13]: 68 ×10⁻⁶ cm/s
- efflux ratio [14]: 4
- IC50 [1]: 840 nM
- Ki [2]: 2690 nM
- microsomal CLint [3]: 16 µL/min/mg
- Ki [4]: 3330 nM
- Ki [5]: 8 nM
- Papp A→B [15]: 17 ×10⁻⁶ cm/s
Compound: CN(C)S(=O)(=O)N(Cc1ccccc1-c1ccccc1)[C@H]1CCNC1

- microsomal CLint [3]: 9 µL/min/mg
- Ki [4]: 415 nM
- Ki [5]: 30 nM
Compound: CC(C)CC(=O)N(Cc1ccccc1-c1ccccc1)[C@H]1CCNC1

- Ki [2]: 2550 nM
- Ki [4]: 2700 nM
- Ki [5]: 96 nM
Compound: CS(=O)(=O)N(Cc1ccccc1Oc1ccccc1)[C@H]1CCNC1

- Ki [2]: 3500 nM
- microsomal CLint [3]: 10 µL/min/mg
- Ki [4]: 229 nM
- Ki [5]: 34 nM
Compound: CC(C)C(=O)N(Cc1ccccc1Oc1ccccc1)[C@H]1CCNC1

- Ki [2]: 2080 nM
- Ki [4]: 5280 nM
- Ki [5]: 30 nM
Compound: O=S(=O)(N(Cc1ccccc1-c1ccccc1)[C@H]1CCNC1)C(F)(F)F

- Papp B→A [13]: 68 ×10⁻⁶ cm/s
- efflux ratio [14]: 6.1
- IC50 [16]: > 3000 nM
- IC50 [1]: 1860 nM
- Ki [2]: 3740 nM
- pKa [17]: 9.4
- microsomal CLint [3]: < 7 µL/min/mg
- Ki [4]: 960 nM
- Ki [19]: 1200 nM
- logD [20]: 0.8
- Ki [5]: 6 nM
- IC50 [21]: > 3000 nM
- Ki [22]: > 10000 nM
- IC50 [23]: > 3000 nM
- Papp A→B [15]: 11 ×10⁻⁶ cm/s
Compound: CC(C)C(=O)N(Cc1ccccc1-c1ccccc1)[C@H]1CCNC1
- Ki [18]: 2840 nM

- Ki [2]: 2950 nM
- microsomal CLint [3]: < 7 µL/min/mg
- Ki [4]: 1250 nM
- Ki [5]: 86 nM
Compound: CSc1ccccc1CN([C@H]1CCNC1)S(C)(=O)=O

- Ki [2]: 3210 nM
- Ki [4]: 427 nM
- Ki [5]: 46 nM
Compound: CCOC(=O)N(Cc1ccccc1C(F)(F)F)[C@H]1CCNC1

- IC50 [1]: 185 nM
- Ki [2]: 2070 nM
- microsomal CLint [3]: 12 µL/min/mg
- Ki [4]: 5680 nM
- Ki [5]: 7 nM
Compound: CCCS(=O)(=O)N(Cc1ccccc1-c1ccccc1)[C@H]1CCNC1

- Papp B→A [13]: 44 ×10⁻⁶ cm/s
- Papp B→A [24]: 28 ×10⁻⁶ cm/s
- EC50 [25]: > 10000 nM
- IC50 [16]: > 3000 nM
- IC50 [1]: 1210 nM
- Ki [2]: 3030 nM
- pKa [17]: 9.6
- microsomal CLint [3]: < 7 µL/min/mg
- EC50 [27]: > 10000 nM
- Ki [4]: 1110 nM
- inhibition [28]: > 80%
- CL [29]: < 5 µL/min/mg
- inhibition [30]: > 80%
- Ki [19]: 1100 nM
- logD [20]: 1.1
- inhibition [31]: > 80%
- inhibition [32]: > 80%
- Ki [5]: 8 nM
- Ki [33]: 635 nM
- IC50 [21]: > 3000 nM
- Ki [22]: 1500 nM
- Papp A→B [35]: 27 ×10⁻⁶ cm/s
- IC50 [23]: > 3000 nM
- EC50 [36]: > 10000 nM
- Papp A→B [15]: 22 ×10⁻⁶ cm/s
Compound: CCOC(=O)N(Cc1ccccc1-c1ccccc1)[C@H]1CCNC1
- Ki [26]: 2.5 nM
- Activity [34]: 400%

Compound: c1ccc(-c2ccccc2CN(C2CCOCC2)[C@H]2CCNC2)cc1
- t1/2 [10]: > 2 h

- IC50 [1]: 10600 nM
- Ki [2]: 3190 nM
- microsomal CLint [3]: < 7 µL/min/mg
- Ki [4]: 4440 nM
- Ki [5]: 18 nM
Compound: COC(=O)N(Cc1ccccc1-c1ccccc1)[C@H]1CCNC1
